Measured values reported in US20240383840A1, “AMINE-N-OXIDE COMPOUNDS” (Karl Franzens Universität Graz, priority 2021, published 2024).

Assay: Critical micelle concentration (CMC) by Wilhelmy plate method, K100C Force Tensiometer
Format: physicochemical
Conditions: 25° C., pH 3
Method: As a parameter for the surfactant properties of the novel amine-N-oxide compounds, as usual, the critical micelle concentration (CMC), i.e. the concentration of the protonated or cationic form of the surfactants at which micelles can form was used and was determined using a K100C Force Tensiometer from Krüss Scientific according to the Wilhelmy plate method at 25° C. and pH 3. For comparison, dodecyldimethylamine N-oxide (“C1”) was measured under the same conditions.

CMC value [mM]	Compound
4.1	CCCCCCCCOc1c(C[N+](C)(C)[O-])cc(CC)cc1OC [Compound 1, N,N-dimethyl-1-(5-ethyl-3-methoxy-2-octyloxyphenyl)methanamine N-oxide]

Same assay, conditions: critical micelle concentration of the protonated or cationic form; Wilhelmy plate method, 25° C., pH 3

Compound	CMC [mmol/L]
CCCCCCCCCCCCCCCCCCOc1c(C[N+](C)(C)[O-])cc(CC)cc1C[N+](C)(C)[O-] [Compound 15, 1,1′-(5-ethyl-2-octadecyloxy-1,3-phenylene)-bis(N,N-dimethylmethanamine N-oxide)]	29
CCCCCCCCCCCCCCCCOc1c(C[N+](C)(C)[O-])cc(CC)cc1C[N+](C)(C)[O-] [Compound 14, 1,1′-(5-ethyl-2-hexadecyloxy-1,3-phenylene)-bis(N,N-dimethylmethanamine N-oxide)]	75
CCCCCCCCCCCC[N+](C)(C)[O-] [Compound C1, dodecyldimethylamine N-oxide, reference compound]	4200
CCCCCCCCCCCCOc1c(C[N+](C)(C)[O-])cc(CC)cc1C[N+](C)(C)[O-] [Compound 13, 1,1′-(2-dodecyloxy-5-ethyl-1,3-phenylene)-bis(N,N-dimethylmethanamine N-oxide)]	190
CCCCCCCCCCCCOc1c(C[N+]2([O-])CCCC2)cc(CC)cc1OC [Compound 7, 1-(2-dodecyloxy-5-ethyl-3-methoxybenzyl)pyrrolidine-1-oxide]	36
CCCCCCCCCCCCOc1c(C[N+]2([O-])CCCCC2)cc(CC)cc1OC [Compound 8, 1-(2-dodecyloxy-5-ethyl-3-methoxybenzyl)piperidine-1-oxide]	130

Continued, values first:

CMC [mmol/L]	Compound
570	CCCCCCCCCCOc1c(C[N+](C)(C)[O-])cc(CC)cc1OC [Compound 2, N,N-dimethyl-1-(2-decyloxy-5-ethyl-3-methoxyphenyl)methanamine N-oxide]
4.0	CCCCCCCCCCCCCCCCOc1c(C[N+](C)(C)[O-])cc(CC)cc1OC [Compound 5, N,N-dimethyl-1-(5-ethyl-2-hexadecyloxy-3-methoxyphenyl)methanamine N-oxide]
4.1	CCCCCCCCOc1c(C[N+](C)(C)[O-])cc(CC)cc1OC [Compound 1, N,N-dimethyl-1-(5-ethyl-3-methoxy-2-octyloxyphenyl)methanamine N-oxide]
1.3	CCCCCCCCCCCCCCCCCCOc1c(C[N+](C)(C)[O-])cc(CC)cc1OC [Compound 6, N,N-dimethyl-1-(5-ethyl-3-methoxy-2-octadecyloxyphenyl)methanamine N-oxide]
89	CCCCCCCCCCCCOc1c(C[N+](C)(C)[O-])cc(CC)cc1OC [Compound 3, N,N-dimethyl-1-(2-dodecyloxy-5-ethyl-3-methoxyphenyl)methanamine N-oxide]
5.2	CCCCCCCCCCCCCCOc1c(C[N+](C)(C)[O-])cc(CC)cc1OC [Compound 4, N,N-dimethyl-1-(5-ethyl-3-methoxy-2-tetradecyloxyphenyl)methanamine N-oxide]

Same assay, conditions: second value of the cell, for (3)*; asterisk not explained; otherwise 25° C., pH 3

CMC, value marked (3)* [mmol/L]	Compound
19	CCCCCCCCCCCCOc1c(C[N+](C)(C)[O-])cc(CC)cc1OC [Compound 3, N,N-dimethyl-1-(2-dodecyloxy-5-ethyl-3-methoxyphenyl)methanamine N-oxide]
